Laboratory results published in publication PMC2845880 (Bioorganic & medicinal chemistry letters, 2010).

Assays:
[1] = target: T1, TbMCA2 (Trypanosoma brucei brucei, UniProt Q8T8E7); assay: In vitro inhibition of TbMCA2; format: biochemical; conditions: P1 tail modification / peptoid backbone
T1 sequence (Q8T8E7 1-347): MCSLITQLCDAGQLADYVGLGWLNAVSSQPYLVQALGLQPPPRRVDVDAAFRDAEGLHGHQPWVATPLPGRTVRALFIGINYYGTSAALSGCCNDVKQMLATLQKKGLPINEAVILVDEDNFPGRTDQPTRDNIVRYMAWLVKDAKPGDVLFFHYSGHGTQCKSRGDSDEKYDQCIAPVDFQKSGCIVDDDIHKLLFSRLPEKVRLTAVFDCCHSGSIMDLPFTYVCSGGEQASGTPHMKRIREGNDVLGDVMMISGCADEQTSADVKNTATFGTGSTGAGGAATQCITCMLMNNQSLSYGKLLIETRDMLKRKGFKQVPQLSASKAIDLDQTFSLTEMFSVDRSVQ

[2] = tested on: Plasmodium falciparum (ring stage and schizont); assay: In vitro antiparasitic evaluation against Plasmodium falciparum; format: cell-based
[3] = tested on: T. b. brucei, T. cruzi, Leishmania infantum, Plasmodium falciparum; assay: In vitro biological evaluation against protozoa; format: cell-based; conditions: in vitro protozoa panel
[4] = tested on: human lung fibroblasts (MRC-5); assay: Cytotoxicity on human lung fibroblasts; format: cell-based

SMILES	Antiparasitic activity against P. falciparum (in words) [2]	Antiparasitic activity (in words) [3]	also measured
N#C[C@H](Cc1ccc(NC(=N)N)cc1)NC(=O)OCc1ccccc1 [Compound 3]	–	–	Activity on TbMCA2 (in words) [1]: inactive
N=C(N)NCCC[C@@H](/C=C/S(=O)(=O)c1ccccc1)NC(=O)OCc1ccccc1 [Compound 15]	modest antiparasitic activity	–	–
NCCCC[C@H](NC(=O)OCc1ccccc1)C(=O)c1nc2ccccc2s1 [Compound 16]	–	modest antiparasitic activities	–
Cn1c(C(=O)[C@H](CCCNC(=N)N)NC(=O)OCc2ccccc2)nc2ccccc21 [Compound 14]	very modest	–	–
N=C(N)NCCC[C@H](NC(=O)OCc1ccccc1)C(=O)c1nc2ccccc2s1 [Compound 11]	very modest	–	Cytotoxicity (in words) [4]: without cytotoxicity
N=C(N)NCCCC[C@H](NC(=O)OCc1ccccc1)C(=O)c1nc2ccccc2s1 [Compound 17]	–	modest antiparasitic activities	–
N#C[C@H](Cc1ccc(N)cc1)NC(=O)OCc1ccccc1 [Compound 2]	–	–	Activity on TbMCA2 (in words) [1]: inactive
N#C[C@H](CCCNC(=N)N)NC(=O)OCc1ccccc1 [Compound 1]	–	no antiparasitic activity	–
